Data published in PubChem BioAssay AID2060616 (Molecular Pharmacology Branch, DTP, NCI, 2025).

Tested on: 377384-186-R-J1-PDC complex spheroid viability
Experiment: Anticancer human tumor 377384-186-R-J1-PDC patient-derived pancreatic carcinoma cell line growth inhibition [CLK]
Conditions: for IC50: curve of first compound; for viability, T/C: stronger effect = lower value
Method in brief: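 Patient-derived tumor cells grown as complex spheroids with HUVEC endothelial cells and mesenchymal stem cells, treated with drug combinations. Concentrations descend in half-log steps from near clinical Cmax, or from 10 microM if Cmax unknown.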
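Further: spheroids exposed to agents for 7 days before reading.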
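Wherever viability, T/C is given: luminescence signal used as a stand-in for viable cells.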

For `COc1c(OCCCN2CCOCC2)ccc2c3n(c(=NC(=O)c4cnc(N)nc4)nc12)CCN3` + CNC(=O)c1ccc(Nc2nc(OC3CCCC3)c3c(-c4ccc5nc(C)oc5c4)c[nH]c3n2)c(OC)c1, the IC50 (second compound 0.0316 µM) was 29.9 nM, the IC50 (second compound 0.1 µM) was 12.2 nM and the IC50 (second compound 0.316 µM) was < 3.16 nM. For the same compound, the IC50 (second compound 1 µM) was < 3.16 nM, the IC50 (second compound 3.16 µM) was < 3.16 nM and the IC50 (second compound 10 µM) was < 3.16 nM. It also gave a viability, T/C (second compound 0.0316 µM, first compound 0.00316 µM) of 74.8%, a viability, T/C (second compound 0.0316 µM, first compound 0.01 µM) of 66.1% and a viability, T/C (second compound 0.0316 µM, first compound 0.0316 µM) of 47.6%. It also gave a viability, T/C (second compound 0.0316 µM, first compound 0.1 µM) of 33.9%, a viability, T/C (second compound 0.0316 µM, first compound 0.316 µM) of 23.1% and a viability, T/C (second compound 0.0316 µM, first compound 1 µM) of 14%. The viability, T/C (second compound 0.1 µM, first compound 0.00316 µM) was 63.3%, the viability, T/C (second compound 0.1 µM, first compound 0.01 µM) was 54.5% and the viability, T/C (second compound 0.1 µM, first compound 0.0316 µM) was 35.7%. The viability, T/C (second compound 0.1 µM, first compound 0.1 µM) was 27.5%, the viability, T/C (second compound 0.1 µM, first compound 0.316 µM) was 17.4% and the viability, T/C (second compound 0.1 µM, first compound 1 µM) was 12%. It also gave a viability, T/C (second compound 0.316 µM, first compound 0.00316 µM) of 19.1%, a viability, T/C (second compound 0.316 µM, first compound 0.01 µM) of 19.1% and a viability, T/C (second compound 0.316 µM, first compound 0.0316 µM) of 14.5%. It also gave a viability, T/C (second compound 0.316 µM, first compound 0.1 µM) of 14%, a viability, T/C (second compound 0.316 µM, first compound 0.316 µM) of 11.6% and a viability, T/C (second compound 0.316 µM, first compound 1 µM) of 10.4%. The viability, T/C (second compound 1 µM, first compound 0.00316 µM) was 19%, the viability, T/C (second compound 1 µM, first compound 0.01 µM) was 16.6% and the viability, T/C (second compound 1 µM, first compound 0.0316 µM) was 16.8%. For the same compound, the viability, T/C (second compound 1 µM, first compound 0.1 µM) was 12.2%, the viability, T/C (second compound 1 µM, first compound 0.316 µM) was 10.7% and the viability, T/C (second compound 1 µM, first compound 1 µM) was 9.69%. The viability, T/C (second compound 3.16 µM, first compound 0.00316 µM) was 19.9%, the viability, T/C (second compound 3.16 µM, first compound 0.01 µM) was 17.6% and the viability, T/C (second compound 3.16 µM, first compound 0.0316 µM) was 13.6%. For the same compound, the viability, T/C (second compound 3.16 µM, first compound 0.1 µM) was 12.9%, the viability, T/C (second compound 3.16 µM, first compound 0.316 µM) was 9.91% and the viability, T/C (second compound 3.16 µM, first compound 1 µM) was 9.78%. For the same compound, the viability, T/C (second compound 10 µM, first compound 0.00316 µM) was 21.4%, the viability, T/C (second compound 10 µM, first compound 0.01 µM) was 17.7% and the viability, T/C (second compound 10 µM, first compound 0.0316 µM) was 14.4%. The viability, T/C (second compound 10 µM, first compound 0.1 µM) was 11.6%, the viability, T/C (second compound 10 µM, first compound 0.316 µM) was 10.8% and the viability, T/C (second compound 10 µM, first compound 1 µM) was 9.14%.
